How the values were obtained:
[1] = molecular target: T1, Transitional endoplasmic reticulum ATPase (Homo sapiens, UniProt P55072); test: Inhibition of p97 (unknown origin) by ADP-Glo assay
[2] = molecular target: T1, Transitional endoplasmic reticulum ATPase; test: Inhibition of p97 in human HeLa cells assessed as reduction in p97-dependent UbG76V-GFP degradation incubated for 1 hr by […] reporter gene assay; type: cell-based
JeKo-1 = test: Growth inhibition of human JeKo1 cells assessed as reduction in cell viability by MTT assay; type: functional, cell-based
[3] = molecular target: T1, Transitional endoplasmic reticulum ATPase; test: Binding affinity to p97 (unknown origin) by SPR assay
[4] = molecular target: T1, Transitional endoplasmic reticulum ATPase; test: Inhibition of p97 (unknown origin) expressed in Escherichia coli BL21 (DE3) pre-incubated for 10 mins before ATP addition and measured up to 120 mins measured by malachite green assay
[5] = molecular target: T1, Transitional endoplasmic reticulum ATPase; test: Inhibition of p97 in HEK293 cells co-expressing GFP and hemagglutinin assessed as reduction in p97-dependent ERAD pathway by immunoblotting analysis; type: cell-based
[6] = test system: Panel NCI-60 (60 carcinoma cell lines); test: Growth inhibition of human NCI60 cells; type: functional, cell-based
[7] = molecular target: T1, Transitional endoplasmic reticulum ATPase; test: Inhibition of human p97
[8] = molecular target: T1, Transitional endoplasmic reticulum ATPase; test: Binding affinity to GST-tagged p97 (unknown origin) by CD spectroscopy
[9] = molecular target: T1, Transitional endoplasmic reticulum ATPase; test: Inhibition of p97 (unknown origin) assessed as reduction in ATPase activity
[10] = molecular target: ATP-dependent clpX-like chaperone, mitochondrial (Homo sapiens, UniProt O76031); test: Inhibition of ClpX (unknown origin) expressed in Escherichia coli BL21 (DE3) pre-incubated for 10 mins before ATP addition and measured up to 120 mins measured by malachite green assay
[11] = molecular target: T2, Vacuolar protein sorting-associated protein 4B (Homo sapiens, UniProt O75351); test: Inhibition of VPS4B (unknown origin) by malachite green assay
T2 sequence (O75351 whole entry): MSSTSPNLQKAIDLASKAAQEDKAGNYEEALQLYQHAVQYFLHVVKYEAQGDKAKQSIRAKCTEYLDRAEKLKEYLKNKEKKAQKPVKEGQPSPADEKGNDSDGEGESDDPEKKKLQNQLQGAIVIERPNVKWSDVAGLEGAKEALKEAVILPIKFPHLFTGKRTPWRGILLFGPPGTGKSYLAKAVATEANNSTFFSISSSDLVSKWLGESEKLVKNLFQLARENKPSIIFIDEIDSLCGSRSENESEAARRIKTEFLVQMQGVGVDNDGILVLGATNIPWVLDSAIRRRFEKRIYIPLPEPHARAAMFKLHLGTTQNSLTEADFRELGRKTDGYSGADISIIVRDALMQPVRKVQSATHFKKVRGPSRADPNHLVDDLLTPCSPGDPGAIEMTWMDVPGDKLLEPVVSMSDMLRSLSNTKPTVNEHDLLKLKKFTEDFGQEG

Homo sapiens = organism: Homo sapiens; test: Selectivity ratio of IC50 for inhibition of p97 (unknown origin) by malachite green assay to IC50 for inhibition of VPS4B (unknown origin) by malachite green assay
[12] = molecular target: T2, Vacuolar protein sorting-associated protein 4B; test: Inhibition of VPS4B (unknown origin) assessed as reduction in ATPase activity in presence of activating fragment of substrate CHMP1B
[13] = molecular target: T1, Transitional endoplasmic reticulum ATPase; test: Inhibition of p97 (unknown origin) by malachite green assay
Human betaherpesvirus 5 = test: Antiviral activity against Human Cytomegalovirus; type: functional, organism-based
HCT-116 = test: Antiproliferative activity against human HCT116 cells; type: functional, cell-based
[14] = molecular target: T1, Transitional endoplasmic reticulum ATPase; test: Inhibition of GST-fused VCP (unknown origin) expressed in Escherichia coli BL21 star (DE3) pre-incubated for 60 mins before ATP addition and measured after 60 mins by kinase Glo-Plus reagent based assay

T1 sequence (P55072 whole entry): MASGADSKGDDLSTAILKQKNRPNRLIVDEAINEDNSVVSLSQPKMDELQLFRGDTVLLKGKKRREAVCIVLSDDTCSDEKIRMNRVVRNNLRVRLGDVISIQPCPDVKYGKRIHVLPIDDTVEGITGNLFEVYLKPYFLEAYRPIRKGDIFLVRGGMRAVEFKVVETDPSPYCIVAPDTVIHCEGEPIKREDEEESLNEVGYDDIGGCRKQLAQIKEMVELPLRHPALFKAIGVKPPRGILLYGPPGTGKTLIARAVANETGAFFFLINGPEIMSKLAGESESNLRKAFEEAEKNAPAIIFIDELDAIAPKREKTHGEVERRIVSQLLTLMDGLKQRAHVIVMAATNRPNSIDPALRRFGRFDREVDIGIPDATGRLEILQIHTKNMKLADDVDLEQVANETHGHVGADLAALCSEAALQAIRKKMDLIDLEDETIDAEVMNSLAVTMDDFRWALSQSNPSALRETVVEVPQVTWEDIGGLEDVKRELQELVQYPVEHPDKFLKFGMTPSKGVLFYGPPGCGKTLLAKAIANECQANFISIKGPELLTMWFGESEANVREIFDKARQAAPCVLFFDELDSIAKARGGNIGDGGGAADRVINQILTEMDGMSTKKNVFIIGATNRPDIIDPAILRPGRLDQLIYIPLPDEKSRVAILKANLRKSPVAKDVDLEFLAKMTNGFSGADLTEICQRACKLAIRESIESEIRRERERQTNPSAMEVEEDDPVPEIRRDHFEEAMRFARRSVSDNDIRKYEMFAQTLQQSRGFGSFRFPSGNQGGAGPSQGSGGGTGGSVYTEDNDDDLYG
Sequence of ATP-dependent clpX-like chaperone, mitochondrial (O76031 whole entry): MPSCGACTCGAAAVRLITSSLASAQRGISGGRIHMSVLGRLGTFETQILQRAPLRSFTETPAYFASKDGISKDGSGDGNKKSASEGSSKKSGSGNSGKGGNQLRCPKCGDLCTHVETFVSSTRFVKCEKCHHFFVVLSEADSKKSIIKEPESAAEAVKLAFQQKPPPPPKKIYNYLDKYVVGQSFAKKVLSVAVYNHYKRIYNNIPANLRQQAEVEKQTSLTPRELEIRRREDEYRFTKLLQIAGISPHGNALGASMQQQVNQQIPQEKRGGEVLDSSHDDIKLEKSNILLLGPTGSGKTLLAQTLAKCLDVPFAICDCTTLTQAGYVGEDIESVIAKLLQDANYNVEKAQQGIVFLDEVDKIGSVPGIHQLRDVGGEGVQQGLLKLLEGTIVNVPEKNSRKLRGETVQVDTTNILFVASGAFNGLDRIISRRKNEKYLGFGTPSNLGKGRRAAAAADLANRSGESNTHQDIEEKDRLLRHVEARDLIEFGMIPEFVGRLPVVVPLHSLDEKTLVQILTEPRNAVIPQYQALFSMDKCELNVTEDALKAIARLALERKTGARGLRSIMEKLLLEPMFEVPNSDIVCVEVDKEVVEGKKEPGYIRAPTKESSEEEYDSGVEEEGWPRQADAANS

Question: With `CC(C)N1CCN(CCNC2CCN(c3cccc(-c4cc5cc(C(F)(F)F)ccc5[nH]4)c3)CC2)CC1` as the compound, how does the IC50 [1] read?
Answer: 4600 nM

Question: Which IC50 [2] does the source give for `Clc1ccccc1C(c1ccccc1)(c1ccccc1)n1ccnc1` [CLOTRIMAZOLE] here?
Answer: 1400 nM

Question: How did the IC50 (JeKo-1) turn out when `CC1(C)C(N(O)C(=O)Nc2ccc(Cl)cc2)N(c2ccc(Cl)cc2)C(=O)N1CC(=O)N/N=C/C=C/c1ccc([N+](=O)[O-])o1` (stereo not drawn) was run?
Answer: 4000 nM

Question: And the Kd [3]?
Answer: 5000 to 10000 nM

Question: For `C[C@H]1CCC/C=C/C(=O)c2c(O)c(Cl)c(O)c(Cl)c2CC(=O)O1`, which IC50 [4] is on record?
Answer: 15300 nM

Question: What about the IC50 [5] of the same compound?
Answer: 7900 nM

Question: `CC(C)N1CCN(CCNC2CCN(c3cccc(-c4cc5cc(C#N)ccc5[nH]4)c3)CC2)CC1` was tested. Which IC50 [1] did it give?
Answer: 44 nM

Question: For `CC(C)N1CCN(CCNC2CCN(c3cccc(-c4cc5cc(F)ccc5[nH]4)c3)CC2)CC1`, which IC50 [6] is on record?
Answer: 316 to 2000 nM

Question: And the IC50 [7]?
Answer: 20 to 70 nM

Question: Which Kd [8] does the source give for `O=C(/C=C1\Nc2ccccc2C(=O)N2CCC[C@@H]12)/C=C/c1c[nH]c2ccc(I)cc12` here?
Answer: 7000 nM

Question: `CC(C)N1CCN(CCNC2CCN(c3cccc(-c4cc5cc(C(=O)N(C)C)ccc5[nH]4)c3)CC2)CC1` was tested. Which IC50 [1] did it give?
Answer: 31400 nM

Question: Which IC50 [9] does the source give for `[N-]=[N+]=Nc1cccc(-n2c(COc3ccc(CCCO)cc3)nnc2SC2CCCC2)c1` here?
Answer: 1100 nM

Question: With `CC(=O)OCC1=C(C)C[C@H]([C@@H](C)[C@H]2CC[C@H]3[C@@H]4C[C@H]5O[C@]56[C@@H](O)C=CC(=O)[C@]6(C)[C@H]4CC[C@]23C)OC1=O` as the compound, how does the IC50 [4] read?
Answer: 22000 nM

Question: What about the IC50 [10] of the same compound?
Answer: 9500 nM

Question: Which IC50 [11] does the source give for `Fc1ccc(C(CCCNCC2CCc3[nH]c4ccc(F)cc4c3C2)c2ccc(F)cc2)cc1` (stereo not drawn) here?
Answer: 710 nM

Question: What about the Ratio IC50 (Homo sapiens) of the same compound?
Answer: 10

Question: What about the IC50 [12] of the same compound?
Answer: 710 nM

Question: And the IC50 [13]?
Answer: 7200 nM

Question: `Nc1nc2c(ncn2COC(CO)CO)c(=O)[nH]1` [GANCICLOVIR] was tested. Which IC50 (Human betaherpesvirus 5) did it give?
Answer: 1300 nM

Question: `O=C(CCl)Nc1cccc(NC2=NS(=O)(=O)c3ccccc32)c1` was tested. Which IC50 (HCT-116) did it give?
Answer: 3000 nM

Question: With `[N-]=[N+]=Nc1cccc(OCc2nnc(SC3CCCC3)n2-c2cccnc2)c1` as the compound, how does the IC50 [9] read?
Answer: 760 nM

Question: How did the IC50 [14] turn out when `COc1ccc(C(=O)c2oc3ccccc3c2NC(C)=O)cc1` was run?
Answer: > 100000 nM

Question: How did the IC50 (Human betaherpesvirus 5) turn out when `Cc1cc(OCc2nnc(SC3CCCC3)n2-c2cccnc2)ccc1-c1ccc(S(C)(=O)=O)cc1` was run?
Answer: 130 nM

— ChEMBL document CHEMBL4354809, “p97: An Emerging Target for Cancer, Neurodegenerative Diseases, and Viral Infections” (J Med Chem, 2020)
